Test results reported in PubChem BioAssay AID2060599 (Molecular Pharmacology Branch, DTP, NCI, 2025).

These compounds were tested on 817829-284-R-J1-PDC complex spheroids, viability (assay: Anticancer human tumor 817829-284-R-J1-PDC patient-derived colon adenocarcinoma cell line growth inhibition [CLK]). Conditions: second compound 3.16 µM; first compound 0.1 µM; active compounds read low.
Text: A high-throughput screen of multi-cell type tumor spheroids was designed to identify active combinations of […] and targeted small molecules. Complex spheroids include a stromal component modeled by human endothelial cells (HUVEC) and fibroblasts modeled by human mesenchymal stem cells (MSCs). The concentration ranges selected for each drug and investigational agent were based upon clinically achievable concentrations if the clinical Cmax of the agent was known.
Compounds. The drugs and investigational agents: cirtuvivint (SM08502; NSC835563), CC-671 (NSC850746), vemurafenib (NSC761431), tapotoclax (NSC804041), sotorasib (NSC818433), adagrasib (NSC831453), MRTX-1133 (NSC836407), BAY2416964 (NSC825713), copanlisib (NSC816437), inavolisib (NSC800729), abemaciclib (NSC768073), osimertinib (NSC779217), entinostat (NSC756642), eltanexor (KPT-8602, NSC794443), venetoclax (NSC766270), ceralasertib (NSC777638), bortezomib (NSC756655), olaparib (NSC753686), talazoparib (NSC767125), alisertib (NSC759677), peposertib (NSC802822), gemcitabine (NSC613327), 5-fluorouracil (NSC19893), SN-38 (NSC673596), oxaliplatin (NSC266046), paclitaxel (NSC125973), and doxorubicin (NSC123127), were obtained from the National Cancer Institute (NCI) Developmental Therapeutics Program Chemical Repository. The FDA-approved anticancer drug set is available from the Developmental Therapeutics Program at https://dtp.cancer.gov/organization/dscb/obtaining/available plates.htm. […] The stock solutions were prepared in dimethyl sulfoxide (DMSO, Sigma-Aldrich, St. Louis, MO, cat. D2650), except for the platinum complexes which were prepared in saline (Quality Biological, Gaithersburg, MD, cat. 114-055-101), at 800-fold the tested concentration and stored at -70 degrees C prior to their use. All drugs and investigational agents were tested over a range starting from a high concentration at or near the clinical Cmax and decreasing in half-log increments. If the clinical Cmax for an agent had not been determined, the highest concentration tested was 10 microM.
Cell Culture. All cells were maintained in an incubator at 37 degrees C and 5% CO2 with 95% humidity. The PDC lines were cultured according to standard operating procedures established by the NCI PDMR. Briefly, all PDCs were thawed and cultured in Matrigel-coated flasks prepared with a working solution of 1X Ham's F-12 nutrient mix, without supplementation (Invitrogen, Waltham, MA, cat. 11765054), 100 U/mL penicillin-streptomycin (Invitrogen, cat. 15140122), and 2.5% Matrigel (Corning Inc., Corning, NY, cat. 354248) for the first three passages. The 947758-054-R-J2-PDC line was cultured in 6B/Colon 1A media, which includes advanced DMEM/F-12 (Thermo Fisher Scientific, cat. 12634028), 10 mM HEPES (Thermo Fisher Scientific, cat. 15630080), 1X GlutaMAX supplement (Thermo Fisher Scientific, cat. 35050061), 0.1 mg/mL primocin (InvivoGen, cat. ant-pm-2), 10% defined fetal bovine serum, heat inactivated (HyClone Laboratories Inc., cat. SH30070.03HI), 1.25 mM N-Acetyl-L-cysteine (Sigma-Aldrich, cat. A9165), 10 mM nicotinamide (Sigma-Aldrich, cat. N0636), 1X B-27 supplement (Thermo Fisher Scientific, cat. 17504044), 1X N-2 supplement (Thermo Fisher Scientific, cat. 17502048), and 10 microM Y-27632 dihydrochloride (Tocris Bioscience, cat. 1254). The 876862-298-R-J1-PDC was cultured in 6E media, which includes all 6B/Colon 1A media components plus 50% L-WRN conditioned media (ATCC, cat. CRL-3276), 50 ng/mL recombinant human EGF recombinant protein (hEGF; Thermo Fisher Scientific, cat. PHG0311), 10 ng/mL recombinant human fibroblast growth factor 10 (hGFG-10; PeproTech, cat. 100-26), 1 ng/mL recombinant human fibroblast growth factor 2 (hFGF-2; PeproTech, cat. 100-18B), and 1 µM prostaglandin E2 (PGE2; Tocris, cat. 2296). The 227483-062-R1-J1-PDC line was cultured in Panc media, containing all 6E components except hFGF-2, with the addition of 500 nM SB-431542 (Selleckchem, cat. S1067) and 10 nM gastrin (Tocris, cat. 3006). […]
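Also: spheroids exposed to the agents for seven days before readout.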

Compound | viability, T/C
C=CC(=O)N1CCN(c2nc(=O)n(-c3c(C)ccnc3C(C)C)c3nc(-c4c(O)cccc4F)c(F)cc23)C(C)C1 (stereo unspecified) + CN1CCN(c2cc(C(=O)Nc3cc4cc(-c5cnn(C)c5)ccc4cn3)ccn2)CC1 | 0.28%
COC1C=CCC(C)C(C)S(=O)(=O)NC(=O)c2ccc3c(c2)N(CC2CCC21)CC1(CCCc2cc(Cl)ccc21)CO3 (stereo unspecified) + CN1CCN(c2cc(C(=O)Nc3cc4cc(-c5cnn(C)c5)ccc4cn3)ccn2)CC1 | 0.16%

Same assay, conditions: second compound 3.16 µM; first compound 0.316 µM; active compounds read low

Compound | viability, T/C
C=C(F)C(=O)N1CCN(c2nc(OCC3CCCN3C)nc3c2CCN(c2cccc4cccc(Cl)c24)C3)CC1CC#N (stereo unspecified) + CN1CCN(c2cc(C(=O)Nc3cc4cc(-c5cnn(C)c5)ccc4cn3)ccn2)CC1 | 0.2%
C=CC(=O)N1CCN(c2nc(=O)n(-c3c(C)ccnc3C(C)C)c3nc(-c4c(O)cccc4F)c(F)cc23)C(C)C1 (stereo unspecified) + CN1CCN(c2cc(C(=O)Nc3cc4cc(-c5cnn(C)c5)ccc4cn3)ccn2)CC1 | 0.2%
COC1C=CCC(C)C(C)S(=O)(=O)NC(=O)c2ccc3c(c2)N(CC2CCC21)CC1(CCCc2cc(Cl)ccc21)CO3 (stereo unspecified) + CN1CCN(c2cc(C(=O)Nc3cc4cc(-c5cnn(C)c5)ccc4cn3)ccn2)CC1 | 0.23%

Same assay, conditions: second compound 3.16 µM; first compound 1 µM; active compounds read low

Compound | viability, T/C
C=C(F)C(=O)N1CCN(c2nc(OCC3CCCN3C)nc3c2CCN(c2cccc4cccc(Cl)c24)C3)CC1CC#N (stereo unspecified) + CN1CCN(c2cc(C(=O)Nc3cc4cc(-c5cnn(C)c5)ccc4cn3)ccn2)CC1 | 0.15%
C=CC(=O)N1CCN(c2nc(=O)n(-c3c(C)ccnc3C(C)C)c3nc(-c4c(O)cccc4F)c(F)cc23)C(C)C1 (stereo unspecified) + CN1CCN(c2cc(C(=O)Nc3cc4cc(-c5cnn(C)c5)ccc4cn3)ccn2)CC1 | 0.16%
COC1C=CCC(C)C(C)S(=O)(=O)NC(=O)c2ccc3c(c2)N(CC2CCC21)CC1(CCCc2cc(Cl)ccc21)CO3 (stereo unspecified) + CN1CCN(c2cc(C(=O)Nc3cc4cc(-c5cnn(C)c5)ccc4cn3)ccn2)CC1 | 0.46%

Same assay, conditions: second compound 3.16 µM; first compound 3.16 µM; active compounds read low

Compound | viability, T/C
C=C(F)C(=O)N1CCN(c2nc(OCC3CCCN3C)nc3c2CCN(c2cccc4cccc(Cl)c24)C3)CC1CC#N (stereo unspecified) + CN1CCN(c2cc(C(=O)Nc3cc4cc(-c5cnn(C)c5)ccc4cn3)ccn2)CC1 | 0.11%
C=CC(=O)N1CCN(c2nc(=O)n(-c3c(C)ccnc3C(C)C)c3nc(-c4c(O)cccc4F)c(F)cc23)C(C)C1 (stereo unspecified) + CN1CCN(c2cc(C(=O)Nc3cc4cc(-c5cnn(C)c5)ccc4cn3)ccn2)CC1 | 0.51%
COC1C=CCC(C)C(C)S(=O)(=O)NC(=O)c2ccc3c(c2)N(CC2CCC21)CC1(CCCc2cc(Cl)ccc21)CO3 (stereo unspecified) + CN1CCN(c2cc(C(=O)Nc3cc4cc(-c5cnn(C)c5)ccc4cn3)ccn2)CC1 | 0.28%

Same assay, conditions: second compound 3.16 µM; first compound 10 µM; active compounds read low

Compound | viability, T/C
C=C(F)C(=O)N1CCN(c2nc(OCC3CCCN3C)nc3c2CCN(c2cccc4cccc(Cl)c24)C3)CC1CC#N (stereo unspecified) + CN1CCN(c2cc(C(=O)Nc3cc4cc(-c5cnn(C)c5)ccc4cn3)ccn2)CC1 | 0.08%
C=CC(=O)N1CCN(c2nc(=O)n(-c3c(C)ccnc3C(C)C)c3nc(-c4c(O)cccc4F)c(F)cc23)C(C)C1 (stereo unspecified) + CN1CCN(c2cc(C(=O)Nc3cc4cc(-c5cnn(C)c5)ccc4cn3)ccn2)CC1 | 0.15%
COC1C=CCC(C)C(C)S(=O)(=O)NC(=O)c2ccc3c(c2)N(CC2CCC21)CC1(CCCc2cc(Cl)ccc21)CO3 (stereo unspecified) + CN1CCN(c2cc(C(=O)Nc3cc4cc(-c5cnn(C)c5)ccc4cn3)ccn2)CC1 | 0.08%

Same assay, conditions: second compound 10 µM; first compound 0.0316 µM; active compounds read low

Compound | viability, T/C
C=C(F)C(=O)N1CCN(c2nc(OCC3CCCN3C)nc3c2CCN(c2cccc4cccc(Cl)c24)C3)CC1CC#N (stereo unspecified) + CN1CCN(c2cc(C(=O)Nc3cc4cc(-c5cnn(C)c5)ccc4cn3)ccn2)CC1 | 0.1%
C=CC(=O)N1CCN(c2nc(=O)n(-c3c(C)ccnc3C(C)C)c3nc(-c4c(O)cccc4F)c(F)cc23)C(C)C1 (stereo unspecified) + CN1CCN(c2cc(C(=O)Nc3cc4cc(-c5cnn(C)c5)ccc4cn3)ccn2)CC1 | 0.08%
